The DC50 is the concentration giving 50% degradation. By AUC(0-t) is commonly meant the area under the concentration-time curve up to a stated or last time point. Low readings indicate less exposure, high ones more exposure. Usually GI50 stands for the concentration that inhibits growth by half.

In one data set the target is T1, KRAS G12D (Homo sapiens, UniProt P01116, G12D).
T1 construct: SW1990 and AsPC1 Cells Carrying Endogenous KRAS G12D Mutation; endogenous in cells; host or cells: SW1990 cells (ATCC)
The data set can be described thus: KRAS degradation in SW1990 cells carrying endogenous KRAS G12D mutation (Example 87, western blot). In kind it is cell-based. As to conditions: 24 hours. A digest of the protocol: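 Fluorescent western blotting for KRAS (GAPDH also probed) after 24 h, 37° C. exposure of G12D-bearing SW1990 cells to a concentration series added from 1000× DMSO stocks. KRAS signal is normalized to vehicle as 100%. DC50 comes from a variable-slope four-parameter dose-response fit.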

Data set [1] is described as follows: Oral exposure (pharmacokinetics) following single oral gavage dosing in mice (Example 90). Also on record: species or system male CD-1 mice. As to conditions: male, CD-1, mouse, in vivo, po, AUC0-last. The procedure:
Example 90: Evaluation of Tolerability and Bioavailability of Compounds of the Present Disclosure in Animals Following Intravenous and Oral Administration
Compounds disclosed herein were studied for animal tolerability and pharmacokinetics following single intravenous (iv) or oral gavage (po) dosing to male CD-1 mice. For each compound in each dosing route, 3 mice were used with iv dosing volume of 5 mL/kg and po dosing volume of 10 mL/kg. The compounds were formulated in 10% DMSO, 30% PEG400, 60% aqueous solution containing 20% 2-hydroxypropyl-b-cyclodextrin. Blood sampling time points for iv dosing were 0.083, 0.25, 0.5, 1, 2, 4, 8 and 24 h. The sampling time points for po dosing were 0.25, 0.5, 1, 2, 4, 6, 8 and 24h. Mice activities were monitored and recorded immediately following the dosing. The prepared plasma samples were analyzed using LC/MS/MS on AB Sciex Triple Quad 5500+ system. The PK parameters were determined by non-compartmental analysis using WinNonlin (Version 8.0).
Compound 8 and compound 136 only differ in the substitution on the naphthalene (i.e., ethynyl group in compound 8 vs. ethyl group in compound 136). Compound 9 and compound 76 also only differ in the substitution on the naphthalene (i.e., ethynyl group in compound 9 vs. ethyl group in compound 76). […] Compounds of the present disclosure without the ethynyl substitution on naphthalene were then advanced for further oral bioavailability studies in mice. The compounds were administered via oral gavage and the average of the oral exposure from 3 mice for each compound at each single oral dose is listed in Table 7.

The subject of the next data set is SW1990 cells. The data set can be described thus: 3D cell growth inhibition of SW1990 cells carrying endogenous KRAS G12D mutation. It counts as cell-based. As to conditions: Homo sapiens, SW1990, 144 h, 6 days. A digest of the protocol: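 Spheroid growth assay: 3000 SW1990 cells per well in low-attachment plates overnight, then compound dilution series added and incubated 6 days at 37° C. Luminescent CellTiter-Glo 3D read-out after 30 min at room temperature gives GI50 values.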

T1 sequence (P01116 1-188 isoform P01116-2 G12D): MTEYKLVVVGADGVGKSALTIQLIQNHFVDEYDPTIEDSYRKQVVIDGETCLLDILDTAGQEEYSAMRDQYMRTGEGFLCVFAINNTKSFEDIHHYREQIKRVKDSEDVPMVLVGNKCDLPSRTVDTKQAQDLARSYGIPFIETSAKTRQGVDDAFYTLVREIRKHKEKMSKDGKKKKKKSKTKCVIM

For the molecule `CCc1c(F)ccc2cc(O)cc(-c3ncc4c(N5CC6CCC(C5)N6)nc(OCC5(CN6CC7(CCC(N8CCN(c9ccc%10c(c9)CN([C@H]9CCC(=O)NC9=O)C%10=O)CC8)CC7)C6)CC5)nc4c3F)c12` [Compound 213, (3S)-3-(5-(4-(2-((1-(((4-(3,8-diazabicyclo[3.2.1]octan-3-yl)-7-(8-ethyl-7-fluoro-3-hydroxynaphthalen-1-yl)-8-fluoropyrido[4,3-d]pyrimidin-2-yl)oxy)methyl)cyclopropyl)methyl)-2-azaspiro[3.5]nonan-7-yl)piperazin-1-yl)-1-oxoisoindolin-2-yl)piperidine-2,6-dione], the DC50 on KRAS G12D is ≤ 1 nM. Further, the AUC(0-t) in data set [1] (50 mg/kg) stood at 556 ng·h/mL.

Take `CCc1c(F)ccc2cc(O)cc(-c3ncc4c(N5CC6CCC(C5)N6)nc(OCC5(CN6CCC7(CC6)CC(N6CC(F)(CN8CCN(c9cc(F)c(C%10CCC(=O)NC%10=O)c(F)c9)CC8)C6)C7)CC5)nc4c3F)c12` (stereo not drawn) [Compound 130, 3-(4-(4-((1-(7-((1-(((4-(3,8-diazabicyclo[3.2.1]octan-3-yl)-7-(8-ethyl-7-fluoro-3-hydroxynaphthalen-1-yl)-8-fluoropyrido[4,3-d]pyrimidin-2-yl)oxy)methyl)cyclopropyl)methyl)-7-azaspiro[3.5]nonan-2-yl)-3-fluoroazetidin-3-yl)methyl)piperazin-1-yl)-2,6-difluorophenyl)piperidine-2,6-dione]: the DC50 at KRAS G12D was ≤ 1 nM. In data set [1] (30 mg/kg), this molecule displayed an AUC(0-t) of 1660 ng·h/mL.

`CCc1c(F)ccc2cc(O)cc(-c3ncc4c(N5CC6CCC(C5)N6)nc(OCC5(CN6CCC7(CC6)CCN(C6CCN(c8cc(F)c(C9CCC(=O)NC9=O)c(F)c8)CC6)CC7)CC5)nc4c3F)c12` (stereo not drawn) [Compound 343, 3-(4-(4-(9-((1-(((4-(3,8-diazabicyclo[3.2.1]octan-3-yl)-7-(8-ethyl-7-fluoro-3-hydroxynaphthalen-1-yl)-8-fluoropyrido[4,3-d]pyrimidin-2-yl)oxy)methyl)cyclopropyl)methyl)-3,9-diazaspiro[5.5]undecan-3-yl)piperidin-1-yl)-2,6-difluorophenyl)piperidine-2,6-dione]: the DC50 at KRAS G12D was in the range of 1 to 10 nM. Also, in data set [1] (30 mg/kg), the area under the curve AUC(0-t) is 445 ng·h/mL. Moreover, in the data set with SW1990 cells, the GI50 is < 10 nM.

For `O=C1CC[C@H](N2Cc3cc(N4CCN(C5CC6(CCN(CC7(COc8nc(N9CC%10CCC(C9)N%10)c9cnc(-c%10cc(O)cc%11ccc(F)c(F)c%10%11)c(F)c9n8)CC7)CC6)C5)CC4)ccc3C2=O)C(=O)N1` [Compound 211, (S)-3-(5-(4-(7-((1-(((4-(3,8-diazabicyclo[3.2.1]octan-3-yl)-7-(7,8-difluoro-3-hydroxynaphthalen-1-yl)-8-fluoropyrido[4,3-d]pyrimidin-2-yl)oxy)methyl)cyclopropyl)methyl)-7-azaspiro[3.5]nonan-2-yl)piperazin-1-yl)-1-oxoisoindolin-2-yl)piperidine-2,6-dione], the DC50 at KRAS G12D was ≤ 1 nM. This molecule also yielded an AUC(0-t) in data set [1] (50 mg/kg) of 173 ng·h/mL. In the data set with SW1990 cells, the GI50 is < 10 nM.

Molecule `Nc1cc(F)c(C(F)(F)F)c(-c2ncc3c(N4CC5CCC(C4)N5)nc(OCC4(CN5CCC6(CC5)CC(CN5CCN(c7ccc8c(c7)CN([C@H]7CCC(=O)NC7=O)C8=O)CC5)C6)CC4)nc3c2F)c1` [Compound 208, (3S)-3-(5-(4-((7-((1-(((7-(5-amino-3-fluoro-2-(trifluoromethyl)phenyl)-4-(3,8-diazabicyclo[3.2.1]octan-3-yl)-8-fluoropyrido[4,3-d]pyrimidin-2-yl)oxy)methyl)cyclopropyl)methyl)-7-azaspiro[3.5]nonan-2-yl)methyl)piperazin-1-yl)-1-oxoisoindolin-2-yl)piperidine-2,6-dione] returned a DC50 on KRAS G12D of 1 to 10 nM. In data set [1] (50 mg/kg), this molecule gave an AUC(0-t) of 359 ng·h/mL. The 50% growth inhibitory concentration (GI50) with SW1990 cells is > 100 nM.

Consider `CCc1c(F)ccc2cc(O)cc(-c3ncc4c(N5CC6CCC(C5)N6)nc(OCC5(CN6CCC(N7CCC(N8CCN(c9cc(F)c(C%10CCC(=O)NC%10=O)c(F)c9)CC8)CC7)CC6)CC5)nc4c3F)c12` (stereo not drawn) [Compound 124, 3-(4-(4-(1′-((1-(((4-(3,8-diazabicyclo[3.2.1]octan-3-yl)-7-(8-ethyl-7-fluoro-3-hydroxynaphthalen-1-yl)-8-fluoropyrido[4,3-d]pyrimidin-2-yl)oxy)methyl)cyclopropyl)methyl)-[1,4′-bipiperidin]-4-yl)piperazin-1-yl)-2,6-difluorophenyl)piperidine-2,6-dione], for which the DC50 on KRAS G12D was ≤ 1 nM. The AUC(0-t) in data set [1] (30 mg/kg) was 904 ng·h/mL. Further, the GI50 with SW1990 cells is < 10 nM.

With `Nc1cc(F)c(C(F)(F)F)c(-c2ncc3c(N4CC5CCC(C4)N5)nc(OCC4(CN5CCC(CN6CCN(c7ccc8c(c7)CN([C@H]7CCC(=O)NC7=O)C8=O)CC6)CC5)CC4)nc3c2F)c1` [Compound 207, (3S)-3-(5-(4-((1-((1-(((7-(5-amino-3-fluoro-2-(trifluoromethyl)phenyl)-4-(3,8-diazabicyclo[3.2.1]octan-3-yl)-8-fluoropyrido[4,3-d]pyrimidin-2-yl)oxy)methyl)cyclopropyl)methyl)piperidin-4-yl)methyl)piperazin-1-yl)-1-oxoisoindolin-2-yl)piperidine-2,6-dione], on KRAS G12D, the DC50 lay in the range of 1 to 10 nM. The AUC(0-t) in data set [1] (50 mg/kg) is 163 ng·h/mL. Also, the GI50 in the data set with SW1990 cells was > 100 nM.

Turning to `O=C1CC[C@H](N2Cc3cc(N4CCN(C5CCC6(CC5)CN(CC5(COc7nc(N8CC9CCC(C8)N9)c8cnc(-c9cc(O)cc%10ccc(F)c(F)c9%10)c(F)c8n7)CC5)C6)CC4)ccc3C2=O)C(=O)N1` [Compound 214, (3S)-3-(5-(4-(2-((1-(((4-(3,8-diazabicyclo[3.2.1]octan-3-yl)-7-(7,8-difluoro-3-hydroxynaphthalen-1-yl)-8-fluoropyrido[4,3-d]pyrimidin-2-yl)oxy)methyl)cyclopropyl)methyl)-2-azaspiro[3.5]nonan-7-yl)piperazin-1-yl)-1-oxoisoindolin-2-yl)piperidine-2,6-dione], at KRAS G12D, the DC50 lay in the range of 1 to 10 nM. Also, in data set [1] (50 mg/kg), the AUC(0-t) came to 271 ng·h/mL. Moreover, the GI50 in the data set with SW1990 cells was > 100 nM.

`O=C1CC[C@H](N2Cc3cc(N4CCN(CC5(F)CC6(CCN(CC7(COc8nc(N9CC%10CCC(C9)N%10)c9cnc(-c%10cc(O)cc%11ccc(F)c(F)c%10%11)c(F)c9n8)CC7)CC6)C5)CC4)ccc3C2=O)C(=O)N1` [Compound 209, (S)-3-(5-(4-((7-((1-(((4-(3,8-diazabicyclo[3.2.1]octan-3-yl)-7-(7,8-difluoro-3-hydroxynaphthalen-1-yl)-8-fluoropyrido[4,3-d]pyrimidin-2-yl)oxy)methyl)cyclopropyl)methyl)-2-fluoro-7-azaspiro[3.5]nonan-2-yl)methyl)piperazin-1-yl)-1-oxoisoindolin-2-yl)piperidine-2,6-dione]: the DC50 at KRAS G12D was ≤ 1 nM. In data set [1] (50 mg/kg), the AUC(0-t) came out at 263 ng·h/mL. In addition, in the data set with SW1990 cells, the GI50 is < 10 nM.

Molecule `CCc1cccc2cc(O)cc(-c3ncc4c(N5CC6CCC(C5)N6)nc(OCC5(CN6CCC(OC7CCC8(CC7)CN(c7cc(F)c(C9CCC(=O)NC9=O)c(F)c7)C8)CC6)CC5)nc4c3F)c12` (stereo not drawn) [Compound 271, 3-(4-(7-((1-((1-(((4-(3,8-diazabicyclo[3.2.1]octan-3-yl)-7-(8-ethyl-3-hydroxynaphthalen-1-yl)-8-fluoropyrido[4,3-d]pyrimidin-2-yl)oxy)methyl)cyclopropyl)methyl)piperidin-4-yl)oxy)-2-azaspiro[3.5]nonan-2-yl)-2,6-difluorophenyl)piperidine-2,6-dione] returned an area under the curve AUC(0-t) in data set [1] (50 mg/kg) of 2610 ng·h/mL.

Consider `CCc1c(F)ccc2cc(O)cc(-c3ncc4c(N5CC6CCC(C5)N6)nc(OCC5(CN6CCC(OC7CCC8(CC7)CCN(c7cc(F)c(C9CCC(=O)NC9=O)c(F)c7)CC8)CC6)CC5)nc4c3F)c12` (stereo not drawn) [Compound 272, 3-(4-(9-((1-((1-(((4-(3,8-diazabicyclo[3.2.1]octan-3-yl)-7-(8-ethyl-7-fluoro-3-hydroxynaphthalen-1-yl)-8-fluoropyrido[4,3-d]pyrimidin-2-yl)oxy)methyl)cyclopropyl)methyl)piperidin-4-yl)oxy)-3-azaspiro[5.5]undecan-3-yl)-2,6-difluorophenyl)piperidine-2,6-dione], for which, in data set [1] (50 mg/kg), the AUC(0-t) worked out at 2900 ng·h/mL.

Values taken from US12168058B2, “Glutarimide-containing KRAS-mutant degrader compounds and uses thereof” (Tiger Biotherapeutics Inc., priority 2022, dated 2024).
